Experimental data from patent US6506772B1, “Substituted [1,2,4]triazolo[1,5a]pyridine derivatives with activity as adenosine receptor ligands” (Hoffmann-La Roche Inc., priority 2000, dated 2003).
pKi: −log10 of the molar value. Read-outs that look alike come from different tables or passages of the source.

Key:
[1] = biological target: T1, HA1 adenosine receptor (Homo sapiens, UniProt P30542); assay: Human adenosine A1 receptor affinity (Ki hA1); assay type: binding
T1 sequence (P30542 1-326): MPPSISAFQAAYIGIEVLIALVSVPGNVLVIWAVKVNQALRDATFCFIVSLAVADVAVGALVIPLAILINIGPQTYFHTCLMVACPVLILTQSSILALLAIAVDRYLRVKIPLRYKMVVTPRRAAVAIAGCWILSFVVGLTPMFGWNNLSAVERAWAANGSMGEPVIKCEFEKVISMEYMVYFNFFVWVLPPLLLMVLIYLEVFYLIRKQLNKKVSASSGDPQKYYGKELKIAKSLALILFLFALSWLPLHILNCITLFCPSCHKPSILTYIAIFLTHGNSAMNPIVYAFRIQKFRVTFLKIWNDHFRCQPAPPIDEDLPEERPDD

[2] = biological target: T2, human adenosine A2A receptor (Homo sapiens, UniProt P29274); assay: Human adenosine A2A receptor [3H]-SCH-58261 binding assay
T2 construct: expressed in transfected cells; host or cells: CHO cells, Semliki Forest virus expression system; membrane preparation
T2 sequence (P29274 whole entry): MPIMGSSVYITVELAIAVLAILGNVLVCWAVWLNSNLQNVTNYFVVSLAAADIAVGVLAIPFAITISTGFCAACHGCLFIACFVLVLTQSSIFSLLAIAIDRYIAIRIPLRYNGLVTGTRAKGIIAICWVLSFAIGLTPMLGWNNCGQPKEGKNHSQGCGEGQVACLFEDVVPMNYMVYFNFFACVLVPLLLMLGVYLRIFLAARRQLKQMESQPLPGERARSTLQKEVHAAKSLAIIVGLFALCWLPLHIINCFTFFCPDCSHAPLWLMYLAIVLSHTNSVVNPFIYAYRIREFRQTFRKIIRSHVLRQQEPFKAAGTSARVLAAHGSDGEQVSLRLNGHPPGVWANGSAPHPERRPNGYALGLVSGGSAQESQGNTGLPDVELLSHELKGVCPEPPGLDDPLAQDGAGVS

[3] = affinity to human adenosine A1 receptor
[4] = affinity to human adenosine A2A receptor, read-out: Ki HA2A
[5] = calculated ratio of the affinity to the HA1 receptor to the HA2a receptor

| Structure (SMILES) | pKi [1, 3] | pKi [2, 4] | selectivity (A1/A2a) [2, 5] | pKi [1] | selectivity (A1/A2a) ([2]; ratio KiHA1 divided by KiHA2A) | pKi ([2]; recombinant human A2A in CHO cell membranes, [3H]-SCH-58261, Cheng-Prussoff, read-out: Ki hA2A) |
| --- | --- | --- | --- | --- | --- | --- |
| CCN(CC)C(=O)c1cc(N)n2nc(-c3ccoc3)nc2c1 [Example 153, 5-Amino-2-furan-3-yl-[1,2,4]triazolo[1,5-a]pyridine-7-carboxylic acid diethylamide] | 5.32 | 6.52 | 16.0 | – | – | – |
| COc1cc(CNC(=O)c2cc(N)n3nc(-c4ccc(Br)o4)nc3c2)cc(OC)c1OC [Example 133, 5-Amino-2-(5-bromo-furan-2-yl)-[1,2,4]triazolo[1,5-a]pyridine-7-carboxylic acid 3,4,5-trimethoxy-benzylamide] | 5.71 | 6.84 | 13.3 | – | – | – |
| Nc1cc(C(=O)NCc2ccccc2)cc2nc(-c3cc(Br)co3)nn12 [Example 172, 5-Amino-2-(4-bromo-furan-2-yl)-[1,2,4]triazolo[1,5-a]pyridine-7-carboxylic acid benzylamide] | 7.61 | 7.53 | 0.8 | – | – | – |
| COc1cc(CNC(=O)c2cc(N)n3nc(-c4ccc(C)s4)nc3c2)cc(OC)c1OC [Example 202, 5-Amino-2-(5-methyl-thiophen-2-yl)-[1,2,4]triazolo[1,5-a]pyridine-7-carboxylic acid 3,4,5-trimethoxy-benzylamide] | 6.17 | 6.51 | 2.2 | – | – | – |
| COc1ccc(-c2nc3cc(C(=O)N(Cc4ccccc4)Cc4ccccc4)cc(N)n3n2)s1 [Example 51, 5-Amino-2-(5-methoxy-thiophen-2-yl)-[1,2,4]triazolo[1,5-a]pyridine-7-carboxylic acid dibenzylamide] | 6.89 | 7.65 | 5.8 | – | – | – |
| CCN(CC)C(=O)c1cc(N)n2nc(-c3ccccc3O)nc2c1 [Example 101, 5-Amino-2-(2-hydroxy-phenyl)-[1,2,4]triazolo[1,5-a]pyridine-7-carboxylic acid diethylamide] | 6.15 | 7.48 | 21.1 | – | – | – |
| CCN1CCN(C(=O)c2cc(N)n3nc(-c4ccc(Br)o4)nc3c2)CC1 [Example 299, [5-Amino-2-(5-bromo-furan-2-yl)-[1,2,4]triazolo[1,5-a]pyridin-7-yl]-(4-ethyl-piperazin-1-yl)-methanone] | 5.80 | 6.91 | 13.0 | – | – | – |
| CCCCNC(=O)c1cc(N)n2nc(-c3cccs3)nc2c1 [Example 161, 5-Amino-2-thiophen-2-yl-[1,2,4]triazolo[1,5-a]pyridine-7-carboxylic acid butylamide] | 6.79 | 7.55 | 5.7 | – | – | – |
| COc1ccccc1CNC(=O)c1cc(N)n2nc(-c3ccccn3)nc2c1 [Example 41, 5-Amino-2-pyridin-2-yl-[1,2,4]triazolo[1,5-a]pyridine-7-carboxylic acid 2-methoxy-benzylamide] | 7.06 | 7.66 | 4.0 | – | – | – |
| COCCN(C)C(=O)c1cc(N)n2nc(-c3nccs3)nc2c1 [Example 397, 5-Amino-2-thiazol-2-yl-[1,2,4]triazolo[1,5-a]pyridine-7-carboxylic acid (2-methoxy-ethyl)-methyl-amide] | – | – | – | 5.26 | 18.4 | 6.53 |
| Nc1cc(C(=O)N2CC=CCC2)cc2nc(-c3nccs3)nn12 [Example 315, (5-Amino-2-thiazol-2-yl-[1,2,4]triazolo[1,5-a]pyridin-7-yl)-(3,6-dihydro-2H-pyridin-1-yl)-methanone] | 5.70 | 7.01 | 20.4 | – | – | – |
| CCCCNC(=O)c1cc(N)n2nc(-c3sccc3C)nc2c1 [Example 184, 5-Amino-2-(3-methyl-thiophen-2-yl)-[1,2,4]triazolo[1,5-a]pyridine-7-carboxylic acid butylamide] | 6.87 | 7.16 | 1.9 | – | – | – |
